# Measurements reported in patent US11807620B2, “Quinazolinone compounds and related compounds” (PLEXIUM, INC., priority 2020, dated 2023).
# Tests used:
# cereblon (NanoLuc-CRBN) = biological target: T1, cereblon (NanoLuc-CRBN) (Homo sapiens, UniProt Q96SW2); assay: NanoBRET CRBN Cellular Target Engagement Assay; format: binding; conditions: compound tested at 10 μM, HEK293T cells transfected with NanoLuc-CRBN, 2 hr incubation; for remaining activity at 10 µM: lower = higher affinity, read-out: % tracer bound At the end of assay; for inhibition at 10 µM: read-out: % tracer removed From CBLN
# T1 construct: host or cells: HEK293T
# T1 sequence (Q96SW2 whole entry): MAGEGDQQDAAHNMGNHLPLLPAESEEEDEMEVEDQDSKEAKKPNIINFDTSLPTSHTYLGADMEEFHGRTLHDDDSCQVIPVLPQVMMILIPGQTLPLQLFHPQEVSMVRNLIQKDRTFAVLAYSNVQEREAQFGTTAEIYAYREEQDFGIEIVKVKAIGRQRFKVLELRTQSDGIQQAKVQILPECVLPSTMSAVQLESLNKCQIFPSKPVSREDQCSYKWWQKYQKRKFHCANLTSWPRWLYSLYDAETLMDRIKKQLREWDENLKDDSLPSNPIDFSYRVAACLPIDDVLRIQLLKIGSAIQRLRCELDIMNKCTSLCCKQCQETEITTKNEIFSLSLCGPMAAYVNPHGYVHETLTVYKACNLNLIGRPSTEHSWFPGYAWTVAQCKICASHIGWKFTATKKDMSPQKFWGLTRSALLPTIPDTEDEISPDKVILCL
# Text: The following example measures the extent to which a test compound of this invention binds to cereblon. In this example, a commercially available cereblon binding test kit (Promega Corporation, Madison, Wis., USA) was used but adapted to a 384 well format.
# The kit comprises a tracer that binds to cereblon to form a tracer-cereblon complex. This complex is reversible. Upon addition of the test compound, competition between the tracer and the test compound for the binding site(s) on cereblon occurs. The extent of tracer release from cereblon correlates to the affinity of test compound to bind to cereblon. The higher the affinity, the more tracer is released from cereblon.
# The assay is a homogenous cell-based assay that used bioluminescence resonance energy transfer (BRET) to measure cereblon target compound binding which causes loss of BRET. Lower BRET values correlate to higher loss of tracer bound to cereblon and, accordingly, higher the levels of target compound binding to cereblon.
# The specifics of the assay include HEK293T cells were transfected with a NanoLuc-CRBN expression plasmid using Fugene as described. Approximately 24 hr later, transfected cells were washed with 1× Phosphate Buffered Saline (PBS) and harvested using trypsin. Cells were resuspended in Opti-MEM (available from Thermo Fisher Scientific) at a concentration of 2×10^5 cells/mL. A ratio of 1 part 100× Tracer to 4 parts NanoBRET Tracer Dilution Buffer was used to make a 20× Tracer stock. Next, 40 μl cells per well containing 1× tracer was dispensed into 384 well white tissue culture treated plates. Compounds were then dispensed using a D330e Digital Dispenser (Tecan Trading AG) and plates were allowed to incubate for 2 hr at 37° C., 5% CO2. Immediately prior to BRET measurements, a 3× Complete NanoBret Nano-Glo Substrate stock in Opti-MEM was prepared and 20 μl per well of substrate was subsequently added to the assay plates. Following a 2-3 minute incubation at room temperature, donor (450 nm) and acceptor (610 nm) emission values were read on a CLARIOStar multimode plate reader (BMG) in luminescence mode. Data were converted to milliBRET units by dividing acceptor emission values by donor emission and multiplying by 1000. […]
# IKZF1 (Ikaros) = biological target: T2, IKZF1 (Ikaros) (Homo sapiens, UniProt Q13422+Q96SW2); assay: Stable cell line fluorescent reporter degradation assay, IKZF1; format: cell-based; conditions: 10 micromolar, HEK 293T IKZF1-mNeonGreen reporter cells, 24 hour incubation, calculated visually from the curves
# T2 construct: mScarlet (C, cleaved yes); expressed in transfected cells
# T2 sequence (Q13422 whole entry): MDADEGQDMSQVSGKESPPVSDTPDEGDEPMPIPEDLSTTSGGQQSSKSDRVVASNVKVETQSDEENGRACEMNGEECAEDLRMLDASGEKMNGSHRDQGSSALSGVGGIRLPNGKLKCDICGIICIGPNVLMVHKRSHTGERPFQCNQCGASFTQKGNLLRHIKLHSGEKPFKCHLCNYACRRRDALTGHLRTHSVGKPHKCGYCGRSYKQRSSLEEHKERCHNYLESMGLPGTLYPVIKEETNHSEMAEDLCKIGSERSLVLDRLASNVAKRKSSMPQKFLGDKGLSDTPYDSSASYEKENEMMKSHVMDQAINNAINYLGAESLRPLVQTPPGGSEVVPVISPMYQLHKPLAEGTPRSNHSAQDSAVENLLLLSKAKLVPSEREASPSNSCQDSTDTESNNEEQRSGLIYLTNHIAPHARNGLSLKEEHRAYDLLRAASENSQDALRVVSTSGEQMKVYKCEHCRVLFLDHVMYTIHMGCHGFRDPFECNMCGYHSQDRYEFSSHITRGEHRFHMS
# T2 sequence (Q96SW2 whole entry): as the sequence (Q96SW2 whole entry) above
# T2 sequence (Q16531 whole entry partner): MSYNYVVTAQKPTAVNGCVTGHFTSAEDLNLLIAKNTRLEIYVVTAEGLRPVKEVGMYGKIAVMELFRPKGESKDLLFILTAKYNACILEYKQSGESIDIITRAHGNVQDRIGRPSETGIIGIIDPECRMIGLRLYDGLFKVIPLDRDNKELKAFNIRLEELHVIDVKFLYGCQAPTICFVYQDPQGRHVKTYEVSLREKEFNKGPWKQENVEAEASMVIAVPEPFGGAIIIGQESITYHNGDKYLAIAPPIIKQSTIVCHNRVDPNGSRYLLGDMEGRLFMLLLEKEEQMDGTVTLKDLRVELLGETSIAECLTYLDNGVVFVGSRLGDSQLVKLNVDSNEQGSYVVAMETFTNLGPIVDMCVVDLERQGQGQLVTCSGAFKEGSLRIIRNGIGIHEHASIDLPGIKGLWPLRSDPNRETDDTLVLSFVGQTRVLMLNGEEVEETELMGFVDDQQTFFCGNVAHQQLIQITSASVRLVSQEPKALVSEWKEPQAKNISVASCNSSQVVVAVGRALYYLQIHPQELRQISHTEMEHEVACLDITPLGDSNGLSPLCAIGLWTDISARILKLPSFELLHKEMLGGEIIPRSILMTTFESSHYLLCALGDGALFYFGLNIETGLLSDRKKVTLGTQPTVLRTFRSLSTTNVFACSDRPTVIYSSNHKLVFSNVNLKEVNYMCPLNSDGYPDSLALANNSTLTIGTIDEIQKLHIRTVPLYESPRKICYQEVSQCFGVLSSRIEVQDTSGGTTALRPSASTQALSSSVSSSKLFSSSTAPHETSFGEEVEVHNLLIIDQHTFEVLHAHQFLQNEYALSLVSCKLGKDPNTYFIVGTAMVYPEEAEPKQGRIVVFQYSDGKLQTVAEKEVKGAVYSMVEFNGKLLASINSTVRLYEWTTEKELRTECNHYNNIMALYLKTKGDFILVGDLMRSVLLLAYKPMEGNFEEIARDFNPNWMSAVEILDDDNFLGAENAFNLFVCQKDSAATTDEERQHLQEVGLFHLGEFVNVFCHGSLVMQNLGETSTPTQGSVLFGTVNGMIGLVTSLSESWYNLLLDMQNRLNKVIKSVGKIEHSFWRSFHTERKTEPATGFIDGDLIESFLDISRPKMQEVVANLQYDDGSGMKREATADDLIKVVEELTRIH
# Text: (§1) Polycistronic plasmids were constructed for the mammalian expression of fluorescent reporter fusions of human transcription factors IKZF1 (Ikaros) and IKZF3 (Aiolos). The respective protein sequences had their C-terminal end joined to a GGGGS linker repeated three times followed by mNeonGreen, P2A sequence, and mScarlet. IKZF1 expression was driven by a CMV promoter while IKZF3 was EF1α promoter driven. The plasmids contained the HygR resistance gene for positive selection of cells with genomic integration of the reporter constructs. The plasmids were transfected using cationic lipid reagents into adherent HEK 293T cells and stable integrants were selected by treatment with 200 ug/mL hygromycin B. Clonal populations were obtained from the population of stable integrants either by limiting dilution or fluorescence activated cell sorting. The clonal stable cell lines were maintained under constant 200 ug/mL hygromycin B selection while being passaged for use in the degradation assays. The fluorescence intensity of the IKZF1/2/3-mNeonGreen (FITC channel) and mScarlet (PE channel) reporters were routinely analyzed by flow cytometry to confirm consistent expression levels between experiments.
# (§2) Representative compounds were evaluated for their ability to degrade IKZF1 and IKZF3 in the following assay.
# (§3) The IKZF1/IKZF3 degradation assays were carried out by harvesting the HEK 293T reporter cell lines and resuspending the cells in media formulated for reduced background fluorescence. The respective cell lines were seeded at a density of 4,000 cells/well into black-walled 384-well optical grade assay plates pre-coated by the manufacturer with PDL. The cells were incubated overnight to allow for attachment to the assay plate (37° C. with humidified air and 5% CO2 for all incubations). Dilutions of the compounds were prepared in dimethyl sulfoxide (DMSO) from 10 mM compound stock solutions in DMSO. The assay plates were treated with appropriate concentrations of the compounds by dispensing the DMSO dilutions in quadruplicate wells with an upper limit of 0.5% final DMSO.
# (§4) After a 24 hour incubation with the compounds, the assay plates were imaged on an ImageXpress Pico microscopy system (cells maintained at 37° C. during imaging) to obtain the fluorescent readouts. The assay plates were imaged in the FITC and TRITC channels to obtain the mNeonGreen fluorescence intensity (reporter degradation data) and mScarlet fluorescence intensity (for cell segmentation), respectively. 293T-IKZF1 and 293T-IKZF3 reporter cell lines were imaged with exposures of 500 milliseconds (ms) for both FITC and TRITC channels. The resulting data was analyzed with Cell Reporter Xpress software using the 2-channel cell scoring analysis with a “percent positive” readout. The TRITC channel was selected for the “nuclei” segmentation with a threshold of 20 while the FITC channel was selected for the “Marker 1” segmentation and a threshold of 100 for the IKZF1 and IKZF3 reporter lines. The minimum segmentation width was set to 6 micrometers and the maximum segmentation width was set to 15 micrometers for all cell lines.
# (§5) The percent degradation amounts were calculated visually from the curves generated at a concentration of 10 micromolar.
# IKZF3 (Aiolos) = biological target: T3, IKZF3 (Aiolos) (Homo sapiens, UniProt Q96SW2+Q9UKT9); assay: Stable cell line fluorescent reporter degradation assay, IKZF3; format: cell-based; conditions: 10 micromolar, HEK 293T IKZF3-mNeonGreen reporter cells, 24 hour incubation, calculated visually from the curves
# T3 construct: mScarlet (C, cleaved yes); expressed in transfected cells
# T3 sequence (Q9UKT9 whole entry): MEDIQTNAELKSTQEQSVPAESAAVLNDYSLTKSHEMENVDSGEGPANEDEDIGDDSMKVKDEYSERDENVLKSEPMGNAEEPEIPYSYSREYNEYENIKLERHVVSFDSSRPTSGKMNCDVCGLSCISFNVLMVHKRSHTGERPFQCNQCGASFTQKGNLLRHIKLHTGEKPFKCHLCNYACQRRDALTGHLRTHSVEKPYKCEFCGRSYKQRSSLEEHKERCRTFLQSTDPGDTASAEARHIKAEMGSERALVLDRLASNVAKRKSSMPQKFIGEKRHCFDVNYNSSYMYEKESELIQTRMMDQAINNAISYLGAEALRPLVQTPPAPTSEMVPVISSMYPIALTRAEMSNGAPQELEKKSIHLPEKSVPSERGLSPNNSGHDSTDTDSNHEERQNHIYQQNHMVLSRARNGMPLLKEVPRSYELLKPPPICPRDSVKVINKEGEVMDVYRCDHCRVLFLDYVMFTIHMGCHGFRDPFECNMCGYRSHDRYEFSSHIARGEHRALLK
# T3 sequence (Q96SW2 whole entry): as the sequence (Q96SW2 whole entry) above
# T3 sequence (Q16531 whole entry partner): as the sequence (Q16531 whole entry partner) above
# Text: as §1, §2, §3, §4, §5
SMILES,remaining activity at 10 µM (cereblon (NanoLuc-CRBN)) [%],inhibition at 10 µM (cereblon (NanoLuc-CRBN)) [%],other results
"Cc1nc2cccc(NCc3ccccc3Cl)c2c(=O)n1C1CCC(=O)NC1=O (centres unmarked) [Example 9, 3-(5-((2-chlorobenzyl)-amino)-2-methyl-4-oxoquinazolin-3(4H)-yl)piperidine-2,6-dione]",30.2,69.8,
"Cc1nc2cccc(NCc3ccc(CO)cc3)c2c(=O)n1C1CCC(=O)NC1=O (centres unmarked) [Example 21, 3-(5-((4-(hydroxymethyl)benzyl)amino)-2-methyl-4-oxoquinazolin-3(4H)-yl)piperidine-2,6-dione]",9.9,90.1,
"Cc1nc2cccc(NCc3ccccc3F)c2c(=O)n1C1CCC(=O)NC1=O (centres unmarked) [Example 6, 3-(5-((2-fluorobenzyl)amino)-2-methyl-4-oxoquinazolin-3(4H)-yl)piperidine-2,6-dione]",26.6,73.4,
"Cc1nc2cccc(NCc3ccc(CN4CC(N5CCOCC5)C4)cc3F)c2c(=O)n1C1CCC(=O)NC1=O (centres unmarked) [compound 91, 3-(5-((2-fluoro-4-((3-morpholinoazetidin-1-yl)methyl)benzyl)amino)-2-methyl-4-oxoquinazolin-3(4H)-yl)piperidine-2,6-dione]",,,"Dmax at 10 µM (IKZF1 (Ikaros); HEK-293T, 24 h): 97.1%; Dmax at 10 µM (IKZF3 (Aiolos); HEK-293T, 24 h): 96.3%"
"COc1ccc(CNc2cccc3nc(C)n(C4CCC(=O)NC4=O)c(=O)c23)c(OC)c1 (centres unmarked) [Example 17, 3-(5-((2,4-dimethoxy-benzyl)-amino)-2-methyl-4-oxoquinazolin-3(4H)-yl)piperidine-2,6-dione]",34.8,65.2,
"COc1ccc(CNc2cccc3nc(C)n(C4CCC(=O)NC4=O)c(=O)c23)cc1OC (centres unmarked) [Example 12, 3-(5-((3,4-dimethoxy-benzyl)-amino)-2-methyl-4-oxoquinazolin-3(4H)-yl)piperidine-2,6-dione]",0,100,
"Cc1ccc(CNc2cccc3nc(C)n(C4CCC(=O)NC4=O)c(=O)c23)cc1 (centres unmarked) [Example 8, 3-(2-methyl-5-((4-methylbenzyl)amino)-4-oxoquinazolin-3(4H)-yl)piperidine-2,6-dione]",47.7,52.3,
"Cc1nc2cccc(NCc3cccc(CN4CCN(c5ccc(C#N)cc5F)CC4)c3)c2c(=O)n1C1CCC(=O)NC1=O (centres unmarked) [compound 33, 4-(4-(3-(((3-(2,6-dioxopiperidin-3-yl)-2-methyl-4-oxo-3,4-dihydroquinazolin-5-yl)amino)methyl)benzyl)piperazin-1-yl)-3-fluorobenzonitrile]",,,Dmax at 10 µM (IKZF1 (Ikaros)): 95.5%; Dmax at 10 µM (IKZF3 (Aiolos)): 87.4%
"Cc1nc2cccc(NCc3ccc(C(F)(F)F)cc3)c2c(=O)n1C1CCC(=O)NC1=O (centres unmarked) [Example 15, 3-(5-((4-trifluoromethyl-benzyl)-amino)-2-methyl-4-oxoquinazolin-3(4H)-yl)piperidine-2,6-dione]",23.9,76.1,
"Cc1nc2cccc(NCc3ccccc3C#N)c2c(=O)n1C1CCC(=O)NC1=O (centres unmarked) [Example 13, 3-(5-((2-cyanobenzyl)-amino)-2-methyl-4-oxoquinazolin-3(4H)-yl)piperidine-2,6-dione]",16,84,
"Cc1nc2cccc(NCc3ccc(C#N)cc3)c2c(=O)n1C1CCC(=O)NC1=O (centres unmarked) [Example 14, 3-(5-((4-cyanobenzyl)-amino)-2-methyl-4-oxoquinazolin-3(4H)-yl)piperidine-2,6-dione]",11.5,88.5,
"Cc1nc2cccc(NCc3cc(Cl)ccc3Cl)c2c(=O)n1C1CCC(=O)NC1=O (centres unmarked) [Example 20, 3-(5-((2,5-dichlorobenzyl)amino)-2-methyl-4-oxoquinazolin-3(4H)-yl)piperidine-2,6-dione]",12.1,87.9,
"Cc1ccccc1CNc1cccc2nc(C)n(C3CCC(=O)NC3=O)c(=O)c12 (centres unmarked) [Example 11, 3-(5-((2-methylbenzyl)-amino)-2-methyl-4-oxoquinazolin-3(4H)-yl)piperidine-2,6-dione]",30.2,69.8,
"COc1cccc(CNc2cccc3nc(C)n(C4CCC(=O)NC4=O)c(=O)c23)c1 (centres unmarked) [Example 3, 3-(5-((3-methoxybenzyl)amino)-2-methyl-4-oxoquinazolin-3(4H)-yl)piperidine-2,6-dione]",27.3,72.7,
"COc1ccc(OC)c(CNc2cccc3nnn(C4CCC(=O)NC4=O)c(=O)c23)c1 (centres unmarked) [Example 19, 3-(5-((2,5-dimethoxybenzyl)amino)-4-oxobenzo[d][1,2,3]triazin-3(4H)-yl)piperidine-2,6-dione]",29.7,71.3,
"Cc1nc2cccc(NCc3cccc(Cl)c3)c2c(=O)n1C1CCC(=O)NC1=O (centres unmarked) [Example 10, 3-(5-((3-chlorobenzyl)-amino)-2-methyl-4-oxoquinazolin-3(4H)-yl)piperidine-2,6-dione]",20.2,79.8,
"Cc1nc2cccc(NCc3c(Cl)cccc3Cl)c2c(=O)n1C1CCC(=O)NC1=O (centres unmarked) [Example 18, 3-(5-((2,6-dichlorobenzyl)-amino)-2-methyl-4-oxoquinazolin-3(4H)-yl)piperidine-2,6-dione]",21.3,78.7,
"COc1ccccc1CNc1cccc2nc(C)n(C3CCC(=O)NC3=O)c(=O)c12 (centres unmarked) [Example 2, 3-(5-((2-methoxybenzyl)amino)-2-methyl-4-oxoquinazolin-3(4H)-yl)piperidine-2,6-dione]",47.4,52.6,
"COc1cc(CNc2cccc3nc(C)n(C4CCC(=O)NC4=O)c(=O)c23)cc(OC)c1 (centres unmarked) [Example 16, 3-(5-((3,5-dimethoxy-benzyl)-amino)-2-methyl-4-oxoquinazolin-3(4H)-yl)piperidine-2,6-dione]",20.9,79.1,
